# Assay results as given in US20160367623A1, “AGONISTS OF GUANYLATE CYCLASE USEFUL FOR THE TREATMENT OF GASTROINTESTINAL DISORDERS, INFLAMMATION, CANCER AND OTHER DISORDERS” (priority 2015, published 2016).
# Bridge positions count the residues as written; N and C are the ends. Ends that are not written are not given here.
# System: patients with chronic idiopathic constipation (CIC)
# Experiment: Second phase 3 CIC trial: CSBM weekly responders by week
# Type: in vivo, human
# Details: MRA
# From the text: Both trials include a two-week pre-treatment baseline period, a 12-week treatment period, and a two-week post-treatment period. The phase 3 CIC program was designed to support regulatory submission in the U. S.
# The primary endpoint for both trials is the proportion of durable overall responders (%), which is the current regulatory endpoint required for U.S. approval in CIC. The FDA has defined a durable overall responder as a patient who fulfills both ≧3 complete spontaneous bowel movements (CSBMs) per week plus an increase of ≧1 CSBM from baseline in the same week, for 9 out of the 12 treatment weeks. In addition, the same patient must be an overall responder for at least 3 of the last 4 treatment weeks in order to be considered a durable overall responder.
# Patients were selected using Rome 3 criteria modified for CIC and had (1) fewer than 3 defecations per week, (2) loose stools occurring rarely without laxatives, (3) inadequate criteria for irritable bowel syndrome with constipation (IBS-C), and (4) at least two of the following applied to at least 25% of defecations: (a) straining during evacuation, (b) lumpy or hard stools, (c) sensation of anorectal obstruction or blockage. Rome 3 requires patients to fulfill the criteria for the last 3 months with symptom onset at least 6 months prior to diagnosis.
# [1] = Week 9, Active Combined, ITT Population-Excluding Duplicate Patients
# [2] = Week 9, Active Combined, ITT Population
# [3] = Week 10, 3 mg, ITT Population-Excluding Duplicate Patients
# [4] = Week 10, 6 mg, ITT Population-Excluding Duplicate Patients
# [5] = Week 10, Active Combined, ITT Population-Excluding Duplicate Patients
# [6] = Week 10, Active Combined, ITT Population
# [7] = Week 11, 3 mg, All Randomized (includes Duplicate Patients)
# [8] = Week 11, 3 mg, ITT Population-Excluding Duplicate Patients
# [9] = Week 11, 6 mg, All Randomized (includes Duplicate Patients)
# [10] = Week 11, 6 mg, ITT Population-Excluding Duplicate Patients
# [11] = Week 11, Active Combined, All Randomized (includes Duplicate Patients)
# [12] = Week 11, Active Combined, ITT Population-Excluding Duplicate Patients
# [13] = Week 11, Active Combined, ITT Population
# [14] = Week 12, 3 mg, All Randomized (includes Duplicate Patients)
# [15] = Week 12, 3 mg, ITT Population-Excluding Duplicate Patients
# [16] = Week 12, 6 mg, All Randomized (includes Duplicate Patients)
# [17] = Week 12, 6 mg, ITT Population-Excluding Duplicate Patients
# [18] = Week 12, Active Combined, All Randomized (includes Duplicate Patients)
# [19] = Week 12, Active Combined, ITT Population-Excluding Duplicate Patients
# [20] = Week 12, Active Combined, ITT Population
substance,measurement,setting,value
"Asn^1-Asp^2-Glu^3-Cys^4-Glu^5-Leu^6-Cys^7-Val^8-Asn^9-Val^10-Ala^11-Cys^12-Thr^13-Gly^14-Cys^15-Leu^16 (NDECELCVNVACTGCL; disulfide 4-12, 7-15) [Plecanatide, uroguanylin analogue, guanylate cyclase-C agonist; (C4:C12, C7:C15) bicycle peptide]",Odds Ratio (adjusted),"Week 9, 6 mg vs placebo, ITT Population",0.727
same,"CSBM Weekly Responders, n (%)",[1],286 (32.6) n (%)
same,"Non-Responders, n (%)",[1],591 (67.4) n (%)
same,"CSBM Weekly Responders, n (%)",[2],288 (32.3) n (%)
same,"Non-Responders, n (%)",[2],604 (67.7) n (%)
same,Difference in Proportions (adjusted),"Week 10, 3 mg minus placebo, All Randomized (includes Duplicate Patients)",0.067
same,Odds Ratio (adjusted),"Week 10, 3 mg vs placebo, All Randomized (includes Duplicate Patients)",0.708
same,"Non-Responders, n (%)","Week 10, 3 mg, All Randomized (includes Duplicate Patients)",328 (69.8) n (%)
same,"CSBM Weekly Responders, n (%)","Week 10, 3 mg, ITT Population",137 (30.9) n (%)
same,"Non-Responders, n (%)","Week 10, 3 mg, ITT Population",306 (69.1) n (%)
same,"CSBM Weekly Responders, n (%)",[3],136 (31.3) n (%)
same,"Non-Responders, n (%)",[3],298 (68.7) n (%)
same,Difference in Proportions (adjusted),"Week 10, 6 mg minus placebo, All Randomized (includes Duplicate Patients)",0.097
same,Odds Ratio (adjusted),"Week 10, 6 mg vs placebo, All Randomized (includes Duplicate Patients)",0.619
same,"Non-Responders, n (%)","Week 10, 6 mg, All Randomized (includes Duplicate Patients)",315 (66.9) n (%)
same,"CSBM Weekly Responders, n (%)","Week 10, 6 mg, ITT Population",154 (34.3) n (%)
same,"Non-Responders, n (%)","Week 10, 6 mg, ITT Population",295 (65.7) n (%)
same,"CSBM Weekly Responders, n (%)",[4],153 (34.5) n (%)
same,"Non-Responders, n (%)",[4],290 (65.5) n (%)
same,"Non-Responders, n (%)","Week 10, Active Combined, All Randomized (includes Duplicate Patients)",643 (68.3) n (%)
same,Difference in Proportions (adjusted),"Week 10, 3 mg minus placebo, ITT Population-Excluding Duplicate Patients",0.064
same,Difference in Proportions (adjusted),"Week 10, 3 mg minus placebo, ITT Population",0.062
same,Odds Ratio (adjusted),"Week 10, 3 mg vs placebo, ITT Population-Excluding Duplicate Patients",0.729
same,Odds Ratio (adjusted),"Week 10, 3 mg vs placebo, ITT Population",0.734
same,Difference in Proportions (adjusted),"Week 10, 6 mg minus placebo, ITT Population-Excluding Duplicate Patients",0.096
same,Difference in Proportions (adjusted),"Week 10, 6 mg minus placebo, ITT Population",0.096
same,Odds Ratio (adjusted),"Week 10, 6 mg vs placebo, ITT Population-Excluding Duplicate Patients",0.630
same,Odds Ratio (adjusted),"Week 10, 6 mg vs placebo, ITT Population",0.629
same,"CSBM Weekly Responders, n (%)",[5],289 (33.0) n (%)
same,"Non-Responders, n (%)",[5],588 (67.0) n (%)
same,"CSBM Weekly Responders, n (%)",[6],291 (32.6) n (%)
same,"Non-Responders, n (%)",[6],601 (67.4) n (%)
same,Difference in Proportions (adjusted),"Week 11, 3 mg minus placebo, All Randomized (includes Duplicate Patients)",0.089
same,Odds Ratio (adjusted),"Week 11, 3 mg vs placebo, All Randomized (includes Duplicate Patients)",0.643
same,"CSBM Weekly Responders, n (%)",[7],153 (32.6) n (%)
same,"Non-Responders, n (%)",[7],317 (67.4) n (%)
same,"CSBM Weekly Responders, n (%)","Week 11, 3 mg, ITT Population",147 (33.2) n (%)
same,"Non-Responders, n (%)","Week 11, 3 mg, ITT Population",296 (66.8) n (%)
same,"CSBM Weekly Responders, n (%)",[8],147 (33.9) n (%)
same,"Non-Responders, n (%)",[8],287 (66.1) n (%)
same,Difference in Proportions (adjusted),"Week 11, 6 mg minus placebo, All Randomized (includes Duplicate Patients)",0.082
same,Odds Ratio (adjusted),"Week 11, 6 mg vs placebo, All Randomized (includes Duplicate Patients)",0.664
same,"CSBM Weekly Responders, n (%)",[9],150 (31.8) n (%)
same,"Non-Responders, n (%)",[9],321 (68.2) n (%)
same,"CSBM Weekly Responders, n (%)","Week 11, 6 mg, ITT Population",145 (32.3) n (%)
same,"Non-Responders, n (%)","Week 11, 6 mg, ITT Population",304 (67.7) n (%)
same,"CSBM Weekly Responders, n (%)",[10],144 (32.5) n (%)
same,"Non-Responders, n (%)",[10],299 (67.5) n (%)
same,"CSBM Weekly Responders, n (%)",[11],303 (32.2) n (%)
same,"Non-Responders, n (%)",[11],638 (67.8) n (%)
same,Difference in Proportions (adjusted),"Week 11, 3 mg minus placebo, ITT Population-Excluding Duplicate Patients",0.089
same,Difference in Proportions (adjusted),"Week 11, 3 mg minus placebo, ITT Population",0.086
same,Odds Ratio (adjusted),"Week 11, 3 mg vs placebo, ITT Population-Excluding Duplicate Patients",0.649
same,Odds Ratio (adjusted),"Week 11, 3 mg vs placebo, ITT Population",0.654
same,Difference in Proportions (adjusted),"Week 11, 6 mg minus placebo, ITT Population-Excluding Duplicate Patients",0.076
same,Difference in Proportions (adjusted),"Week 11, 6 mg minus placebo, ITT Population",0.078
same,Odds Ratio (adjusted),"Week 11, 6 mg vs placebo, ITT Population-Excluding Duplicate Patients",0.690
same,Odds Ratio (adjusted),"Week 11, 6 mg vs placebo, ITT Population",0.68
same,"CSBM Weekly Responders, n (%)",[12],291 (33.2) n (%)
same,"Non-Responders, n (%)",[12],586 (66.8) n (%)
same,"CSBM Weekly Responders, n (%)",[13],292 (32.7) n (%)
same,"Non-Responders, n (%)",[13],600 (67.3) n (%)
same,Difference in Proportions (adjusted),"Week 12, 3 mg minus placebo, All Randomized (includes Duplicate Patients)",0.068
same,Odds Ratio (adjusted),"Week 12, 3 mg vs placebo, All Randomized (includes Duplicate Patients)",0.711
same,"CSBM Weekly Responders, n (%)",[14],145 (30.9) n (%)
same,"Non-Responders, n (%)",[14],325 (69.1) n (%)
same,"CSBM Weekly Responders, n (%)","Week 12, 3 mg, ITT Population",140 (31.6) n (%)
same,"Non-Responders, n (%)","Week 12, 3 mg, ITT Population",303 (68.4) n (%)
same,"CSBM Weekly Responders, n (%)",[15],140 (32.3) n (%)
same,"Non-Responders, n (%)",[15],294 (67.7) n (%)
same,Difference in Proportions (adjusted),"Week 12, 6 mg minus placebo, All Randomized (includes Duplicate Patients)",0.088
same,Odds Ratio (adjusted),"Week 12, 6 mg vs placebo, All Randomized (includes Duplicate Patients)",0.647
same,"CSBM Weekly Responders, n (%)",[16],155 (32.9) n (%)
same,"Non-Responders, n (%)",[16],316 (67.1) n (%)
same,"CSBM Weekly Responders, n (%)","Week 12, 6 mg, ITT Population",151 (33.6) n (%)
same,"Non-Responders, n (%)","Week 12, 6 mg, ITT Population",298 (66.4) n (%)
same,"CSBM Weekly Responders, n (%)",[17],150 (33.9) n (%)
same,"Non-Responders, n (%)",[17],293 (66.1) n (%)
same,"CSBM Weekly Responders, n (%)",[18],300 (31.9) n (%)
same,"Non-Responders, n (%)",[18],641 (68.1) n (%)
same,Difference in Proportions (adjusted),"Week 12, 3 mg minus placebo, ITT Population-Excluding Duplicate Patients",0.066
same,Difference in Proportions (adjusted),"Week 12, 3 mg minus placebo, ITT Population",0.062
same,Odds Ratio (adjusted),"Week 12, 3 mg vs placebo, ITT Population-Excluding Duplicate Patients",0.724
same,Odds Ratio (adjusted),"Week 12, 3 mg vs placebo, ITT Population",0.737
same,Difference in Proportions (adjusted),"Week 12, 6 mg minus placebo, ITT Population-Excluding Duplicate Patients",0.082
same,Difference in Proportions (adjusted),"Week 12, 6 mg minus placebo, ITT Population",0.082
same,Odds Ratio (adjusted),"Week 12, 6 mg vs placebo, ITT Population-Excluding Duplicate Patients",0.673
same,Odds Ratio (adjusted),"Week 12, 6 mg vs placebo, ITT Population",0.672
same,"CSBM Weekly Responders, n (%)",[19],290 (33.1) n (%)
same,"Non-Responders, n (%)",[19],587 (66.9) n (%)
same,"CSBM Weekly Responders, n (%)",[20],291 (32.6) n (%)
same,"Non-Responders, n (%)",[20],601 (67.4) n (%)
